Measurements: patent US20180271930A1, “METHOD FOR RAISING POULTRY” (priority 2015, published 2018)

Columns and labels:
[1] = Examination 4: body weight of chicks raised until 35 days old after feeding GSSG or GSH for 3 days; type: in vivo, broiler chicks; conditions: 0.01% by mass additive in feed for 3 days; n = 6, average ± standard deviation
Experimental: Newly hatched broiler chicks (Ross Breeders Ltd.) were tested. A control group (=additive-free group), a GSSG addition group (0.01% by mass), and a GSH addition group (0.01% by mass) each consisting of 5 males and 5 females were set and fed with a feed composition for 3 days. […] At this timing, 2 males and 2 females in each group were slaughtered to collect blood and skeletal muscles. The gene expression levels of the MyoD family (myogenin, myostatin, and Pax7) were observed. […] Statistics were analyzed using a mixed model in consideration of a gender difference and an interaction between males and females. An ammonium salt was used as oxidized glutathione (GSSG). The GSSG contained 95.6% by mass of oxidized glutathione, and the content of reduced glutathione mixed therein was 0.1% by mass or less. […] A feed composition, for which the amount of oxidized glutathione (GSSG) added was set to 0.01% by mass, is described in Examination 1. A feed composition, for which the amount of reduced glutathione (GSH) added was set to 0.01% by mass, was prepared by adding 0.01% by mass of GSH, instead of 0.01% by mass of GSSG, to the GSSG-containing feed composition described in detail in Examination 1.

myogenin = test: Examination 4: myogenin gene expression in superficial pectoral muscle at 3 days old; type: in vivo, broiler chicks; conditions: 0.01% by mass additive in feed for 3 days, FIG. 3A, n=4
Experimental: FIGS. 3A to 3C illustrate graphs showing the expression of genes related to skeletal muscle cell differentiation in superficial pectoral muscles upon administration of each feed composition in Examination 4 (n=4). […] A relative value of the expression level of each factor is expressed as an average±standard deviation of values obtained by dividing the expression levels of each factor by the expression level of RPS9. Newly hatched broiler chicks (Ross Breeders Ltd.) were tested. A control group (=additive-free group), a GSSG addition group (0.01% by mass), and a GSH addition group (0.01% by mass) each consisting of 5 males and 5 females were set and fed with a feed composition for 3 days. […] At this timing, 2 males and 2 females in each group were slaughtered to collect blood and skeletal muscles. The gene expression levels of the MyoD family (myogenin, myostatin, and Pax7) were observed. […] Statistics were analyzed using a mixed model in consideration of a gender difference and an interaction between males and females. A method for determining gene expressions of the above factors in skeletal muscles is described above. An ammonium salt was used as oxidized glutathione (GSSG). The GSSG contained 95.6% by mass of oxidized glutathione, and the content of reduced glutathione mixed therein was 0.1% by mass or less. […]

## N[C@@H](CCC(=O)N[C@@H](CS)C(=O)NCC(=O)O)C(=O)O [GSH, N—(N-γ-L-glutamyl-L-cysteinyl)glycine, reference compound]
[1]
  Weight, 14 days old: 512.7 ± 79.8 g
  Weight, 35 days old: 2052 ± 267 g
myogenin
  myogenin expression level vs control group: smaller than the decrease
